Reference: patent US20140242595A1, “HEPATOCYTE PRODUCTION VIA FORWARD PROGRAMMING BY COMBINED GENETIC AND CHEMICAL ENGINEERING” (Cellular Dynamics International, Inc., priority 2013, published 2014)

What was measured:
[1] = tested on: human rtTET-expressing ESCs transfected with GFH, H1AM and TBX3; assay: Hepatic programming efficiency by albumin (ALB) flow analysis; assay type: cell-based; details: for % ALB-expressing cells (hepatic programming efficiency): 0.5 μM, alone, added along with doxycycline day 1 to day 7 post-plating, FIG. 6
Description: Genes that are either implicated in hepatic differentiation during normal mammalian development or enriched in adult hepatocytes were cloned into the PiggyBac vector (FIG. 3) under the control of the […] promoter (Table 1). To find transcription factors that are able to directly impose mature hepatic fate upon human ESCs, various combinations of transgene-expressing PiggyBac vectors along with the hPBase-expressing vector were introduced into the human ESCs having constitutive expression of rtTET through nucleofection (Minis Ingenio Electroporation solution: cat#MIR50114; program: Amaxa B-016). Nucleofected human ESCs were cultured on matrigel in mTeSR1 (Stem Cell Technologies). Following geneticin (100 μg/ml) selection for stable genomic transgene integration (cells were passaged at lease once prior to differentiation), human ESCs were individualized by accutase treatment and plated to matrigel-coated 12-well plates. […] Where appropriate, small molecules, such as MEK inhibitor PD0325901, TGFβ kinase/activin receptor like kinase (ALK5) inhibitor A 83-01, and an analogue of the natural signaling molecule cyclic AMP 8-Bromoadenosine 3',5'-cyclic monophosphate (8-Br-cAMP), were added during hepatic programming. To determine the effect of MEK inhibitor PD0325901 (P) and TGFβ kinase/activin receptor like kinase (ALK5) inhibitor A 83-01 (A) on hepatic programming efficiency, human rtTET-expressing ESCs transfected with […] and TBX3 were plated on matrigel-coated 12-well plates at about 0.2×10^6 cells/well in mTeSR supplemented with 10 μM HA100 on day 0. […] Cells were collected for albumin (ALB) flow analysis on day 13 post-plating. […] Transfected cells were plated on matrigel-coated 12-well plates at about 0.2×10^6 cells/well in mTeSR supplemented with 10 μM HA100 on day 0. […] Cells were collected for ALB flow analysis on day 12 post-plating. […] With transgene expression, hepatocyte-like cells with polygonal shapes, distinct nuclei, and tight cell-cell contacts were readily observed. To determine the effect of cyclic AMP analog 8-Br-cAMP on hepatic programming, human rtTET-expressing ESCs transfected with […] and TBX3 were plated on matrigel-coated 12-well plates at about 0.2×10^6 cells/well in mTeSR supplemented with 10 μM HA100 on day 0. […] Cells were collected for ALB flow analysis on day 13 post-plating.

MEK = details: Bain et al., 2007; cited from earlier work

For Cc1cccc(-c2nn(C(=S)Nc3ccccc3)cc2-c2ccnc3ccccc23)n1 [A 83-01], the “% ALB-expressing cells (hepatic programming efficiency)” value ([1]; ALB flow analysis day 13) was “significantly improves”.

In the case of Nc1ncnc2c1nc(Br)n2[C@@H]1O[C@@H]2COP(=O)(O)O[C@H]2[C@H]1O [8-Br-cAMP, 8-Bromoadenosine 3′,5′-cyclic monophosphate], the “saturation concentration for improved hepatic programming” value ([1]; added from day 7 after removal of doxycycline, P and A, ALB flow analysis day 13, FIG. 8) is reported as roughly 200 µM and the “hepatic programming (ALB flow analysis)” value ([1]; different concentrations added from day 7 after removal of doxycycline, P and A, ALB flow analysis day 13, FIG. 8) is reported as “significantly improved”.

For O=C(NOCC1CC1)c1ccc(F)c(F)c1Nc1ccc(I)cc1Cl [PD184352], the “specificity and potency compared to other known MEK inhibitors” value (MEK) is listed as “high degree of specificity and potency”.

For C[C@H]1c2cccc(O)c2C(=O)C2=C(O)[C@]3(O)C(=O)C(C(N)=O)=C(O)[C@@H](N(C)C)[C@@H]3[C@@H](O)[C@@H]21 [Doxycycline], the “optimal time window for transgene induction for hepatic programming” value ([1]; doxycycline 1 μg/ml with P and A for 0, 2, 4, 6, 8 or 10 days, ALB flow analysis day 12, FIG. 7A) was 4 days.

For O=C(NOC[C@H](O)CO)c1ccc(F)c(F)c1Nc1ccc(I)cc1F [PD0325901], the “% ALB-expressing cells (hepatic programming efficiency)” value ([1]; ALB flow analysis day 13) was “significantly improves”.
